Values after ≈ are worked out from the molar mass of the structure shown.
Legend:
Spirogyra = test: Algicidal Activity; assay type: in vivo; parameters: key: 0: Brown algae on the bottom of the vessel. Destroyed and brown spiral chloroplasts (under a microscope).; 10: Vigorous algae growth. Vivid green spiral chloroplasts (under a microscope); settings: 48 hours, 20°±2° C
Description: Tap water (4 liters) was poured into a glass vessel (15 × 20 × 21 cm). The vessel was kept in a greenhouse maintained at 20°±2° C. Then 1 ml (or 5 ml) of a solution prepared by dissolving 0.400 g of the test compound in 100 ml of 4:1 ethanol-acetone mixture was dropped into the vessel to attain the concentration of 1 ppm (or 5 ppm). As the control run, 1 ml (or 5 ml) of the solvent was dropped into the vessel. About 5 g of wet Spirogyra was put in the vessel. Clean air was introduced at a rate of 150 ml/min for 48 hours.
The algicidal acticity was evaluated by the following criteria:
0: Brown algae on the bottom of the vessel. Destroyed and brown spiral chloroplasts (under a microscope).
10: Vigorous algae growth. Vivid green spiral chloroplasts (under a microscope).

[1] = tested on: Staphylococcus aureus FDA 2099; test: Antibacterial Activity (agar dilution method), Staphylococcus aureus FDA 2099; assay type: cell-based; settings: FDA2099, 48 h; Staphylococcus aureus FDA 2099, nutrient agar, 37° C, 2 days; read-out: minimal inhibitory concentration (MIC)
Description: (§1) The minimal inhibitory concentration (MIC; mcg/ml) of the test compounds determined by the agar dilution method on the nutrient agar medium is shown in TABLE III. The procedure is as follows: The test compound was mixed with the nutrient agar medium and the medium was allowed to coagulate. A solution containing Staphylococcus aureus FDA 2099 or Bacillus subtilis PCI 219 was inoculated into the medium and cultivated at 37° C for 2 days.

[2] = tested on: Bacillus subtilis PCI 219; test: Antibacterial Activity (agar dilution method), Bacillus subtilis PCI 219; assay type: cell-based; settings: PCI219, 48 h; Bacillus subtilis PCI 219, nutrient agar, 37° C, 2 days; read-out: minimal inhibitory concentration (MIC)
Description: as §1

barnacles = test: Barnacle Killing Activity; assay type: in vivo; settings: after 48 hours, out of 30 living barnacles, 20°±2° C
Description: Seawater (4 liters) was poured into a glass vessel (15 × 20 × 21 cm). The water temperature was maintained at 20°±2° C. Clean air was introduced at a rate of 150 ml/min throughout the experiment. Then 1 ml (or 5 ml) of a solution prepared by dissolving 0.400 g of the test compound in 100 ml of 4:1 ethanol-acetone mixture was dropped into the vessel to attain the concentration of 1 ppm (or 5 ppm). As the control run, 1 ml (or 5 ml) of the solvent was dropped into the vessel. Of scores of barnacles sticking to a stone obtained from the sea-shore 30 living barnacles were selected at randum, the rest of the barnacles on the stone being neglected for the experiment. Such stone was put in the vessel. After 48 hours, the number of dead barnacles was counted.

Percutaneous toxicity = settings: mouse, in vivo, topical or ocular; dd-strain female mice, 10% solution in acetone on shaved backs
Description: Percutaneous LD50 values were determined in dd-strain female mice by applying a 10% solution of the test compound in acetone on the shaved backs.

[3] = Oral toxicity (Litchfield-Wilcoxon method); settings: mouse, in vivo, dd-strain female mice, 25% suspension in water containing 0.5% carboxymethylcellulose
Description: Oral LD50 values were determined in dd-strain female mice according to the conventional Litchfield-Wilcoxon method. The test compound was administered as a 25% suspension in water containing 0.5% carboxymethylcellulose.

Compound	algicidal activity score (Spirogyra; 1 ppm)	algicidal activity score (Spirogyra; 5 ppm)	MIC [1] [µg/mL]	MIC [2] [µg/mL]	number of dead barnacles (barnacles; 1 ppm)	number of dead barnacles (barnacles; 5 ppm)	LD50 (Percutaneous toxicity) [mg/kg]	LD50 [3] [mg/kg]
CCC(C)(C)c1ccc(O)c(C(=O)Nc2ccc([N+](=O)[O-])c(C)c2)c1 [compound 19]	0	0	0.5 (≈ 1.46 µM)	0.5 (≈ 1.46 µM)	2	30	–	–
CC(C)c1ccc(O)c(C(=O)Nc2ccc([N+](=O)[O-])cc2)c1 [compound 9]	0	0	5 (≈ 16.6 µM)	5 (≈ 16.6 µM)	20	30	–	–
Cc1cc([N+](=O)[O-])ccc1NC(=O)c1cc(C(C)(C)C)ccc1O [Test Compound 10, 5-Tert-butyl-2'-methyl-4'-nitrosalicylanilide]	–	–	–	–	–	–	> 5000	> 10000
COc1cc([N+](=O)[O-])ccc1NC(=O)c1cc(C)ccc1O [compound 6]	–	–	–	–	2	20	–	–
Cc1cc([N+](=O)[O-])ccc1NC(=O)c1cc(C(C)C)ccc1O [compound 7]	0	0	5 (≈ 15.9 µM)	5 (≈ 15.9 µM)	14	30	–	–
COc1cc([N+](=O)[O-])ccc1NC(=O)c1cc(C(C)(C)C)ccc1O [compound 15]	–	–	–	–	9	30	–	–
COc1ccc(NC(=O)c2cc(C(C)(C)C)ccc2O)cc1 [compound 17]	10	0	–	–	–	–	–	–
Cc1ccc(O)c(C(=O)Nc2ccc([N+](=O)[O-])cc2)c1 [compound 4]	10	0	–	–	–	–	–	–
Cc1cc([N+](=O)[O-])ccc1NC(=O)c1cc(C(C)(C)C)ccc1O [compound 10]	0	0	1 (≈ 3.05 µM)	0.5 (≈ 1.52 µM)	30	30	–	–
Cc1ccc(O)c(C(=O)Nc2ccc([N+](=O)[O-])cc2C)c1 [Test Compound 1, 2',5-dimethyl-4'-nitrosalicylanilide]	0	0	5 (≈ 17.5 µM)	2 (≈ 6.99 µM)	10	30	–	–
Cc1cccc(NC(=O)c2cc(C(C)(C)C)ccc2O)c1C [compound 16]	10	0	–	–	4	30	–	–
Cc1cccc(NC(=O)c2cc(C(C)(C)C)ccc2O)c1C [Test Compound 16, 5-Tert-butyl-2',3'-dimethylsalicylanilide]	–	–	–	–	–	–	> 5000	> 10000
Cc1cc([N+](=O)[O-])ccc1NC(=O)c1cc(C(C)(C)CC(C)(C)C)ccc1O [compound 24]	–	–	1 (≈ 2.6 µM)	1 (≈ 2.6 µM)	–	–	–	–
CCC(C)(C)c1ccc(O)c(C(=O)Nc2cccc(SC)c2)c1 [compound 22]	10	0	–	–	–	–	–	–
Cc1ccc(O)c(C(=O)Nc2ccc([N+](=O)[O-])c(C)c2)c1 [Test Compound 2, 3',5-Dimethyl-4'-nitrosalicylanilide]	0	0	–	–	2	30	–	–
Cc1ccc([N+](=O)[O-])cc1NC(=O)c1cc(C(C)C)ccc1O [compound 8]	10	0	5 (≈ 15.9 µM)	5 (≈ 15.9 µM)	16	30	–	–
O=C(Nc1ccc(Br)cc1)c1cc(Br)cc(Br)c1O [Tribromsalan, 3,4',5-Tribromosalicylanilide, reference compound]	–	–	–	–	–	–	> 2000	124
CCC(C)(C)c1ccc(O)c(C(=O)Nc2cc([N+](=O)[O-])ccc2C)c1 [compound 20]	0	0	1 (≈ 2.92 µM)	1 (≈ 2.92 µM)	30	30	–	–
CCC(C)(C)c1ccc(O)c(C(=O)Nc2ccc([N+](=O)[O-])cc2OC)c1 [compound 23]	0	0	5 (≈ 14 µM)	5 (≈ 14 µM)	6	30	–	–
CCC(C)(C)c1ccc(O)c(C(=O)Nc2ccc([N+](=O)[O-])cc2C)c1 [compound 18]	0	0	0.5 (≈ 1.46 µM)	0.5 (≈ 1.46 µM)	30	30	–	–
CC(C)(C)c1ccc(O)c(C(=O)Nc2ccc([N+](=O)[O-])cc2)c1 [compound 13]	–	–	2 (≈ 6.36 µM)	1 (≈ 3.18 µM)	22	30	–	–
CCC(C)(C)c1ccc(O)c(C(=O)Nc2ccc([N+](=O)[O-])cc2)c1 [compound 21]	0	0	1 (≈ 3.05 µM)	1 (≈ 3.05 µM)	25	30	–	–
Cc1cc(NC(=O)c2cc(C(C)(C)C)ccc2O)ccc1[N+](=O)[O-] [compound 11]	10	0	1 (≈ 3.05 µM)	1 (≈ 3.05 µM)	30	30	–	–
CSc1cccc(NC(=O)c2cc(C)ccc2O)c1 [compound 5]	–	–	–	–	2	18	–	–
Cc1ccc(O)c(C(=O)Nc2cc([N+](=O)[O-])ccc2C)c1 [compound 3]	–	–	10 (≈ 34.9 µM)	10 (≈ 34.9 µM)	3	30	–	–
Cc1ccc([N+](=O)[O-])cc1NC(=O)c1cc(C(C)(C)C)ccc1O [compound 12]	10	0	2 (≈ 6.09 µM)	2 (≈ 6.09 µM)	30	30	–	–
CSc1cccc(NC(=O)c2cc(C(C)(C)C)ccc2O)c1 [compound 14]	10	0	5 (≈ 15.9 µM)	5 (≈ 15.9 µM)	3	30	–	–
